The source made the active and inactive calls.
Legend:
Type in all cases: functional
[1] = molecular target: Multidrug resistance protein CDR2 (Candida albicans (strain SC5314 / ATCC MYA-2876) (Yeast), UniProt P78595); experiment: CaCDR2 efflux pump inhibitors in yeast, dose response, S. cerevisiae AD1-8u, singleplex, Cherry Pick1 hits (AID 588604)
[2] = molecular target: Melanin-concentrating hormone receptor 1 (Homo sapiens, UniProt Q99705); experiment: Late-stage fluorescence-based counterscreen for antagonists of the G-protein coupled receptor 7 (GPR7): cell-based dose response assay to identify antagonists of the melanin-concentrating hormone receptor 1 (MCHR1) Set 5.
[3] = molecular target: T1, Neuropeptides B/W receptor type 1 (Homo sapiens, UniProt P48145); experiment: GPR7 antagonist potency, late-stage follow-up, cell-based, fluorescence, dose response, set 5 (AID 588566)
T1 sequence (P48145 whole entry): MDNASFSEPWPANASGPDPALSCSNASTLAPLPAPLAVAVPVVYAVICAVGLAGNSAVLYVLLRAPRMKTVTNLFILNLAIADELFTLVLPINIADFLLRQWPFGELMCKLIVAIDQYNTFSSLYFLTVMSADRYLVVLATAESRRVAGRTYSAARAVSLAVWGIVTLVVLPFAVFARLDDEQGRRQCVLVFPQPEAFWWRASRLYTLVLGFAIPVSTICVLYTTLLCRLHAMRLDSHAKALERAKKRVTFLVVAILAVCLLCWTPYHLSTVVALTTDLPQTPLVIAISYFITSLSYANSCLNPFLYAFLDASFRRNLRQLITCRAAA

[4] = molecular target: Dual specificity mitogen-activated protein kinase kinase 1 (Homo sapiens, UniProt Q02750); experiment: Navigating the Kinome. Panel member name: MAP2K1
Chain of Dual specificity mitogen-activated protein kinase kinase 1 (Q02750 whole entry): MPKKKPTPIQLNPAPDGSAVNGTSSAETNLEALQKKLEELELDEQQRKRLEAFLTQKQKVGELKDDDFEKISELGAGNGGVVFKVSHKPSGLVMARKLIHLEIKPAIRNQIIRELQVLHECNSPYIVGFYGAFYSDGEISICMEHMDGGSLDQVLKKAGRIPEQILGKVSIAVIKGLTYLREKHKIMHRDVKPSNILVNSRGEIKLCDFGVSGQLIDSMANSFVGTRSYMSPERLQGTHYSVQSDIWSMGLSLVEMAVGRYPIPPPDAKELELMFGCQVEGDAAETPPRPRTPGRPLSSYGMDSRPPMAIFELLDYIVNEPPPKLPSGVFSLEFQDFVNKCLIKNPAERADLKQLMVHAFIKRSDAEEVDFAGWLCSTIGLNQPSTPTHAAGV

[5] = molecular target: Death-associated protein kinase 3 (Homo sapiens, UniProt O43293);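 also: measured as one member of a kinome-wide profiling panel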
[6] = molecular target: Mitogen-activated protein kinase kinase kinase kinase 2 (Homo sapiens, UniProt Q12851);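 also: measured as one member of a kinome-wide kinase panel, with MAP4K2 as the panel entry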
[7] = molecular target: Glycogen synthase kinase-3 beta (Homo sapiens, UniProt P49841);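 also: value comes from a broad kinome profiling panel, with GSK3B as the panel member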
[8] = molecular target: Mitogen-activated protein kinase 8 (Homo sapiens, UniProt P45983);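 also: value comes from one member of a kinome-wide kinase profiling panel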
[9] = molecular target: Serine/threonine-protein kinase Chk1 (Homo sapiens, UniProt O14757);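 also: measured as one member of a kinome-wide kinase profiling panel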
Chain of Serine/threonine-protein kinase Chk1 (O14757 whole entry): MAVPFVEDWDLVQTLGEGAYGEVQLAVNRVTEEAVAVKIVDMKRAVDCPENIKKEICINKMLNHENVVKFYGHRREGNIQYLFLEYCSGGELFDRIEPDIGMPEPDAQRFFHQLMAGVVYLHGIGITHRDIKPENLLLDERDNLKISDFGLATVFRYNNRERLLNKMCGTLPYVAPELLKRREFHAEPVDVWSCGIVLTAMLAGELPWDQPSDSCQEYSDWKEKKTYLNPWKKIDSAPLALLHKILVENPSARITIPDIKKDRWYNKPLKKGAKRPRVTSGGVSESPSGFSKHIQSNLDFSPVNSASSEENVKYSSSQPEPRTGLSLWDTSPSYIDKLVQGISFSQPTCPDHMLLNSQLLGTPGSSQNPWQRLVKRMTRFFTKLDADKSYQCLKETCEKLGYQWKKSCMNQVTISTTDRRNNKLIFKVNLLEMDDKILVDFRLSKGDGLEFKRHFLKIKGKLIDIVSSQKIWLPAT

[10] = molecular target: ALK tyrosine kinase receptor (Homo sapiens, UniProt Q9UM73);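 also: ALK tested as one member of a kinase panel screen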
[11] = molecular target: Calcium/calmodulin-dependent protein kinase type II subunit alpha (Homo sapiens, UniProt Q9UQM7); experiment: Navigating the Kinome. Panel member name: CAMK2A
[12] = molecular target: Leucine-rich repeat serine/threonine-protein kinase 2 (Homo sapiens, UniProt Q5S007);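 also: value from a broad kinome-wide panel profiling study in which LRRK2 was one of the kinases tested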
[13] = molecular target: Leukocyte tyrosine kinase receptor (Homo sapiens, UniProt P29376); experiment: Navigating the Kinome. Panel member name: LTK
[14] = molecular target: Hepatocyte growth factor receptor (Homo sapiens, UniProt P08581);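 also: kinase panel profiling across the kinome, with MET as the panel member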
[15] = molecular target: Cyclin-dependent kinase 8 (Homo sapiens, UniProt P49336); experiment: Navigating the Kinome. Panel member name: CDK8
[16] = molecular target: Dual specificity tyrosine-phosphorylation-regulated kinase 1B (Homo sapiens, UniProt Q9Y463); experiment: Navigating the Kinome. Panel member name: DYRK1B
[17] = molecular target: Receptor-type tyrosine-protein kinase FLT3 (Homo sapiens, UniProt P36888);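 also: FLT3 was tested as one member of a kinome-wide kinase panel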
[18] = molecular target: BDNF/NT-3 growth factors receptor (Homo sapiens, UniProt Q16620);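 also: NTRK2 measured as one member of a broad kinome-wide kinase profiling panel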
[19] = molecular target: Dual specificity protein kinase CLK2 (Homo sapiens, UniProt P49760)
[20] = molecular target: Cyclin-dependent kinase 5 (Homo sapiens, UniProt Q00535);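 also: CDK5 measured as one member of a kinase profiling panel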
[21] = molecular target: Serine/threonine-protein kinase D3 (Homo sapiens, UniProt O94806);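 also: determined within a kinase panel screen, with PRKCN as the panel member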
[22] = molecular target: Dual specificity mitogen-activated protein kinase kinase 2 (Homo sapiens, UniProt P36507); experiment: Navigating the Kinome. Panel member name: MAP2K2
Aurora kinase B = Aurora kinase B (Homo sapiens, UniProt Q96GD4)
Chain of Aurora kinase B (Q96GD4 whole entry): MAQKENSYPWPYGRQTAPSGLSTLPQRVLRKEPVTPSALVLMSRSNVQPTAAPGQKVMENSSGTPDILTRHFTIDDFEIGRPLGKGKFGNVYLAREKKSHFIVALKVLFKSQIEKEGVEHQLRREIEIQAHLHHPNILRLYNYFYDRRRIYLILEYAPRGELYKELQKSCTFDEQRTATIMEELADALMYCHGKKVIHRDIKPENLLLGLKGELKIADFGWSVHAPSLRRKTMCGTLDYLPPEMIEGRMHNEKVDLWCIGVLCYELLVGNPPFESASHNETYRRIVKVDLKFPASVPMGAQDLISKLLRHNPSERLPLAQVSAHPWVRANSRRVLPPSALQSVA

[23] = molecular target: Glycogen synthase kinase-3 alpha (Homo sapiens, UniProt P49840);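 also: GSK3A result taken from a broad kinome-wide kinase panel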
[24] = molecular target: Fibroblast growth factor receptor 1 (Homo sapiens, UniProt P11362)
[25] = molecular target: 5'-AMP-activated protein kinase catalytic subunit alpha-1 (Homo sapiens, UniProt Q13131)
[26] = molecular target: cAMP-dependent protein kinase catalytic subunit PRKX (Homo sapiens, UniProt P51817)
[27] = molecular target: Tyrosine-protein kinase JAK2 (Homo sapiens, UniProt O60674);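 also: JAK2 tested as one member of a kinase panel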
LIM domain kinase 1 = LIM domain kinase 1 (Homo sapiens, UniProt P53667); experiment: Navigating the Kinome. Panel member name: LIMK1
[28] = molecular target: Casein kinase I isoform alpha (Homo sapiens, UniProt P48729)
Activin receptor type-1 = Activin receptor type-1 (Homo sapiens, UniProt Q04771); experiment: Navigating the Kinome. Panel member name: ACVR1
[29] = molecular target: Rho-associated protein kinase 1 (Homo sapiens, UniProt Q13464);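 also: measured within a broad kinome-wide panel profiling many kinases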
Chain of Rho-associated protein kinase 1 (Q13464 whole entry): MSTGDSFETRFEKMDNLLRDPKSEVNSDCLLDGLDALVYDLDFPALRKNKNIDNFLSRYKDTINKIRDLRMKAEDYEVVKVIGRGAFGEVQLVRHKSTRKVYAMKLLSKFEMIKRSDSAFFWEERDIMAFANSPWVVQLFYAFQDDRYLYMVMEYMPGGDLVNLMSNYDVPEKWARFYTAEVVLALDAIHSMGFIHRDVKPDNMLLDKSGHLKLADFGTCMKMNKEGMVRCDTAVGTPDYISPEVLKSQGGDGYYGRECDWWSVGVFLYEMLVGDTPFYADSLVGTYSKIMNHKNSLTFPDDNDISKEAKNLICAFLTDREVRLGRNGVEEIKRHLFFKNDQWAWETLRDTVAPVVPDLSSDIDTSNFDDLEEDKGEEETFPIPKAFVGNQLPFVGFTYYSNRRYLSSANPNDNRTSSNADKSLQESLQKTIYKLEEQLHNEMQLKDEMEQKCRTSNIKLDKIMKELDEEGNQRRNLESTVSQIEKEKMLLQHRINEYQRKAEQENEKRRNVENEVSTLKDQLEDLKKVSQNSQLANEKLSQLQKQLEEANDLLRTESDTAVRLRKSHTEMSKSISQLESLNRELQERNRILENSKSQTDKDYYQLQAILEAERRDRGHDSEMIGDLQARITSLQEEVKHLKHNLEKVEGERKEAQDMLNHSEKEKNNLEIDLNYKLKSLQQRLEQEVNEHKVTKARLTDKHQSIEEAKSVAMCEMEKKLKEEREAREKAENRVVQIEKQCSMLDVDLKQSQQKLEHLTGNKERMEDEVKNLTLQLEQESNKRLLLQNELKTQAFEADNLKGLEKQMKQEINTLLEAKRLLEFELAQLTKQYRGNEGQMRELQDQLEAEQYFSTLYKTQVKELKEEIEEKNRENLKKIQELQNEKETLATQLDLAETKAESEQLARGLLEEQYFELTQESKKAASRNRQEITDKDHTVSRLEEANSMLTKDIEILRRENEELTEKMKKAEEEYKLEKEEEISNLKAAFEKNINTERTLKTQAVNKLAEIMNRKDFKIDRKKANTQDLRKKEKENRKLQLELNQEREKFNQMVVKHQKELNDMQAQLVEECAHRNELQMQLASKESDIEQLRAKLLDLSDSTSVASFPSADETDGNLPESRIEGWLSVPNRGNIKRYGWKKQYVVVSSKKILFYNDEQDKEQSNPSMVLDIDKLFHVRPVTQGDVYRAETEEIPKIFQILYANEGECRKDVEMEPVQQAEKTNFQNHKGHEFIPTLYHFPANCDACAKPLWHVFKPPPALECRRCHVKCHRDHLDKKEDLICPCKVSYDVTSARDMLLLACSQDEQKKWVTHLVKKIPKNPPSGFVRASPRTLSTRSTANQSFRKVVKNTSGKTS

[30] = molecular target: Insulin-like growth factor 1 receptor (Homo sapiens, UniProt P08069); experiment: Navigating the Kinome. Panel member name: IGF1R
[31] = molecular target: Serine/threonine-protein kinase TAO1 (Homo sapiens, UniProt Q7L7X3)
[32] = molecular target: Vascular endothelial growth factor receptor 2 (Homo sapiens, UniProt P35968)
[33] = molecular target: Dual specificity protein kinase CLK4 (Homo sapiens, UniProt Q9HAZ1)
Aurora kinase A = Aurora kinase A (Homo sapiens, UniProt O14965);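 also: value from the Navigating the Kinome kinase panel profiling, panel entry STK6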
Chain of Aurora kinase A (O14965 whole entry): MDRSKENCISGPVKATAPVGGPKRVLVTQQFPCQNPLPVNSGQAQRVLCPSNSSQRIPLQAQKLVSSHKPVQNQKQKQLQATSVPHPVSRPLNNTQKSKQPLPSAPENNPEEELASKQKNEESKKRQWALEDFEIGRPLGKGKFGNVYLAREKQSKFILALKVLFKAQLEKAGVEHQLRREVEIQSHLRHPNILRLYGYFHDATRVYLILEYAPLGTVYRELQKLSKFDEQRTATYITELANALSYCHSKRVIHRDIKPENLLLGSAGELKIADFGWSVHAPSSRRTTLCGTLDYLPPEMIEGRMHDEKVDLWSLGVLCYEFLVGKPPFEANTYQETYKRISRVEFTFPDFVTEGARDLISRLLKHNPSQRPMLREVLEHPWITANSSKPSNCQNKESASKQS

[34] = molecular target: G protein-coupled receptor kinase 5 (Homo sapiens, UniProt P34947); experiment: Navigating the Kinome. Panel member name: GPRK5
[35] = molecular target: Tyrosine-protein kinase receptor TYRO3 (Homo sapiens, UniProt Q06418);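 also: TYRO3 value obtained as one member of a kinome-wide profiling panel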
[36] = molecular target: Vascular endothelial growth factor receptor 1 (Homo sapiens, UniProt P17948);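 also: measured within a kinome-wide profiling panel, FLT1 as the panel member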
[37] = molecular target: Platelet-derived growth factor receptor alpha (Homo sapiens, UniProt P16234); experiment: Navigating the Kinome. Panel member name: PDGFRA
[38] = molecular target: Tyrosine-protein kinase ABL1 (Homo sapiens, UniProt P00519)
Chain of Tyrosine-protein kinase ABL1 (P00519 whole entry): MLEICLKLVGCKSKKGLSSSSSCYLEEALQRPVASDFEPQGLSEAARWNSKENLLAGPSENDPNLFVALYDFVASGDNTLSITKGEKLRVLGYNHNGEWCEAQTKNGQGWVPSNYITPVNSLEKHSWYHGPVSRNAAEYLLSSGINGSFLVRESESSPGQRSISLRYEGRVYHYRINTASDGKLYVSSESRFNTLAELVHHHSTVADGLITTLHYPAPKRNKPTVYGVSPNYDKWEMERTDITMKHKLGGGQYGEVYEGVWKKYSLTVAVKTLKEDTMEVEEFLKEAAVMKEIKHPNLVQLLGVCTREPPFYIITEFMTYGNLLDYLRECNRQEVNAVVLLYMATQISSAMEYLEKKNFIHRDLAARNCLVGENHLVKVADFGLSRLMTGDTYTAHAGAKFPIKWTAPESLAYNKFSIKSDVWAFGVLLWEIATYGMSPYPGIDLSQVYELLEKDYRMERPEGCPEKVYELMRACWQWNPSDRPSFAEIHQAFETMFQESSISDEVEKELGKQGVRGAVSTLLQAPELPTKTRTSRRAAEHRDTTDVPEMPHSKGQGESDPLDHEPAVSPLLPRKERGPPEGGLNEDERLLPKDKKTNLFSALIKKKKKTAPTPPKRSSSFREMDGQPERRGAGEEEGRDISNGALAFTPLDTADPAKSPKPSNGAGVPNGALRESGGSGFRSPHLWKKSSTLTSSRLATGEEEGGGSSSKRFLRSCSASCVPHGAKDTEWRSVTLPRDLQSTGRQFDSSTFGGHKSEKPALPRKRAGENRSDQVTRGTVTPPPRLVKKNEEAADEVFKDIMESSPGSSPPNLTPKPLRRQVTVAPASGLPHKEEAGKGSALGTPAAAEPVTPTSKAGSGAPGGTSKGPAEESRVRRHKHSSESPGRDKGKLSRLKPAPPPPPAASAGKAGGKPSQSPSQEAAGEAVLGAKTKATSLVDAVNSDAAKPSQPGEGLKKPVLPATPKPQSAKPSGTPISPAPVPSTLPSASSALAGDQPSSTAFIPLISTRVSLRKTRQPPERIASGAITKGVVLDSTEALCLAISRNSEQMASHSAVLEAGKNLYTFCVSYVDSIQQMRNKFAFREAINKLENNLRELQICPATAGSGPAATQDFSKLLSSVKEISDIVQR

[39] = molecular target: Serine/threonine-protein kinase PAK 4 (Homo sapiens, UniProt O96013);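 also: value obtained within a kinome profiling panel in which PAK4 was one of the panel members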
[40] = molecular target: Mitogen-activated protein kinase 9 (Homo sapiens, UniProt P45984);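 also: value from a kinome panel profiling assay, MAPK9 panel entry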
[41] = molecular target: Cyclin-dependent kinase 7 (Homo sapiens, UniProt P50613);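 also: value comes from a kinome-wide kinase profiling panel in which CDK7 is one member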
Activated CDC42 kinase 1 = Activated CDC42 kinase 1 (Homo sapiens, UniProt Q07912); experiment: Navigating the Kinome. Panel member name: ACK1
[42] = molecular target: Tyrosine-protein kinase JAK3 (Homo sapiens, UniProt P52333)
[43] = molecular target: Cyclin-dependent kinase 9 (Homo sapiens, UniProt P50750);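 also: value from the CDK9 entry of a kinome-spanning kinase panel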
[44] = molecular target: Macrophage-stimulating protein receptor (Homo sapiens, UniProt Q04912); experiment: Navigating the Kinome. Panel member name: MST1R
[45] = molecular target: Dual specificity tyrosine-phosphorylation-regulated kinase 1A (Homo sapiens, UniProt Q13627);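 also: measured against DYRK1A as one member of a broad kinome profiling panel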
[46] = molecular target: Mitogen-activated protein kinase 14 (Homo sapiens, UniProt Q16539);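 also: part of a kinome-wide panel, MAPK14 entry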
[47] = molecular target: Serine/threonine-protein kinase Nek2 (Homo sapiens, UniProt P51955)
[48] = molecular target: Ribosomal protein S6 kinase alpha-3 (Homo sapiens, UniProt P51812);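 also: measured within a kinome-wide profiling panel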
Chain of Ribosomal protein S6 kinase alpha-3 (P51812 whole entry): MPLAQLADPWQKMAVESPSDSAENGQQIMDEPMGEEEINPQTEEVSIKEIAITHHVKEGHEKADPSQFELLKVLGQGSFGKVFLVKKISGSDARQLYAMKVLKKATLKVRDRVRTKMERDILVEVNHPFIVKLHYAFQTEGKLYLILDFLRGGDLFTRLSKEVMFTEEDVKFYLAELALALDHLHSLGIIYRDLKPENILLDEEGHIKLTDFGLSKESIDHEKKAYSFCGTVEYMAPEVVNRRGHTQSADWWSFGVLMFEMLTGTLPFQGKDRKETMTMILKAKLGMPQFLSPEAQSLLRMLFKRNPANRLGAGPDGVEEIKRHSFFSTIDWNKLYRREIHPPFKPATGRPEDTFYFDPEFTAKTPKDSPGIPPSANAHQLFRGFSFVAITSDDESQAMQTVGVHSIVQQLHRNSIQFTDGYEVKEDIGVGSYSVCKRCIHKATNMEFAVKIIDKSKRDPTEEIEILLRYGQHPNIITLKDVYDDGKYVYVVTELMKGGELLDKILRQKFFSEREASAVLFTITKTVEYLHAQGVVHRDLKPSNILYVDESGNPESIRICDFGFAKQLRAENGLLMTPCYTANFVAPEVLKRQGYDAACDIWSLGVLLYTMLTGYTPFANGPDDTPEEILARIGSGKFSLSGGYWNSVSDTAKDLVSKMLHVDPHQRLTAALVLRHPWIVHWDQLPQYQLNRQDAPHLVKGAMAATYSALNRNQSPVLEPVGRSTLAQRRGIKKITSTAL

[49] = molecular target: Proto-oncogene tyrosine-protein kinase receptor Ret (Homo sapiens, UniProt P07949);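 also: measured within a kinome-wide profiling panel, RET as the panel member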
[50] = molecular target: Tyrosine-protein kinase Fyn (Homo sapiens, UniProt P06241)
[51] = molecular target: Inhibitor of nuclear factor kappa-B kinase subunit epsilon (Homo sapiens, UniProt Q14164); experiment: Navigating the Kinome. Panel member name: IKBKE
[52] = molecular target: Macrophage colony-stimulating factor 1 receptor (Homo sapiens, UniProt P07333);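 also: value comes from the Navigating the Kinome screening panel, CSF1R member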
[53] = molecular target: Serine/threonine-protein kinase pim-1 (Homo sapiens, UniProt P11309)
[54] = molecular target: cAMP-dependent protein kinase catalytic subunit alpha (Homo sapiens, UniProt P17612)
[55] = molecular target: Mitogen-activated protein kinase kinase kinase kinase 4 (Homo sapiens, UniProt O95819)
[56] = molecular target: Serine/threonine-protein kinase TBK1 (Homo sapiens, UniProt Q9UHD2); experiment: Navigating the Kinome. Panel member name: TBK1
[57] = molecular target: Protein kinase C theta type (Homo sapiens, UniProt Q04759); experiment: Navigating the Kinome. Panel member name: PRKCQ

O=C(/C=C/c1ccccc1[N+](=O)[O-])NCCc1ccc(F)cc1
EC50 [1]: 25.8 µM (active)

COc1ccc([S+]([O-])c2c(Cl)cnn(Cc3cccc4ccccc34)c2=O)cc1 (configuration not stated)
IC50 [2]: 5.86 µM (active) | IC50 [3]: 6.18 µM (active)

COc1ccccc1CNC(=N)Nc1nccc(-c2cccs2)n1
Ki [4]: > 3.16 µM (inactive) | Ki [5]: > 5.01 µM (inactive) | Ki [6]: > 2.51 µM (inactive) | Ki [7]: 2.51 µM (active) | Ki [8]: > 5.01 µM (inactive) | Ki [9]: > 3.16 µM (inactive) | Ki [10]: > 6.31 µM (inactive) | Ki [11]: > 3.98 µM (inactive) | Ki [12]: > 2.51 µM (inactive) | Ki [13]: > 2.51 µM (inactive) | Ki [14]: > 2.51 µM (inactive) | Ki [15]: > 3.98 µM (inactive) | Ki [16]: 0.398 µM (active) | Ki [17]: > 3.16 µM (inactive) | Ki [18]: > 3.98 µM (inactive) | Ki [19]: 3.16 µM (active) | Ki [20]: 0.126 µM (active) | Ki [21]: > 3.98 µM (inactive) | Ki [22]: > 3.98 µM (inactive) | Ki (Aurora kinase B): > 3.98 µM (inactive) | Ki [23]: 1.26 µM (active) | Ki [24]: > 3.98 µM (inactive) | Ki [25]: > 3.16 µM (inactive) | Ki [26]: > 3.16 µM (inactive) | Ki [27]: > 2.51 µM (inactive) | Ki (LIM domain kinase 1): > 3.16 µM (inactive) | Ki [28]: > 3.98 µM (inactive) | Ki (Activin receptor type-1): > 3.98 µM (inactive) | Ki [29]: > 3.98 µM (inactive) | Ki [30]: > 2.51 µM (inactive) | Ki [31]: 5.01 µM (active) | Ki [32]: > 2.51 µM (inactive) | Ki [33]: 0.316 µM (active) | Ki (Aurora kinase A): > 1.58 µM (inactive) | Ki [34]: > 3.98 µM (inactive) | Ki [35]: > 3.16 µM (inactive) | Ki [36]: > 3.98 µM (inactive) | Ki [37]: > 2.51 µM (inactive) | Ki [38]: > 2.51 µM (inactive) | Ki [39]: > 5.01 µM (inactive) | Ki [40]: > 3.98 µM (inactive) | Ki [41]: > 3.98 µM (inactive) | Ki (Activated CDC42 kinase 1): > 3.98 µM (inactive) | Ki [42]: > 5.01 µM (inactive) | Ki [43]: 0.1 µM (active) | Ki [44]: > 3.98 µM (inactive) | Ki [45]: 1.58 µM (active) | Ki [46]: > 3.98 µM (inactive) | Ki [47]: > 3.16 µM (inactive) | Ki [48]: > 3.98 µM (inactive) | Ki [49]: > 3.16 µM (inactive) | Ki [50]: > 6.31 µM (inactive) | Ki [51]: > 3.16 µM (inactive) | Ki [52]: > 2.51 µM (inactive) | Ki [53]: > 6.31 µM (inactive) | Ki [54]: > 1.26 µM (inactive) | Ki [55]: > 5.01 µM (inactive) | Ki [56]: > 3.16 µM (inactive) | Ki [57]: > 2.51 µM (inactive)

— ChEMBL document CHEMBL1201862, “PubChem BioAssay data set” (2004)
